Test results taken from patent US20260374739A1, “SMALL MOLECULAR WEIGHT CHEMICAL COMPOUND TO ANTAGONIZE EPH-EPHRIN TETRAMERIZATION AND INHIBIT BIDIRECTIONAL SIGNALING” (THE BOARD OF REGENTS OF THE UNIVERSITY OF TEXAS SYSTEM, priority 2022, published 2026).

Target: EphrinB1-EphB2 (Homo sapiens, UniProt P29323)
Assay: Octet, immobilized human EphrinB1 binding to human EphB2
Description: Studies were conducted to confirm that A20 chemicals can effectively target the human Eph/Ephrin proteins. Octet system was used to first characterize the biophysical interactions of the human B class Eph and Ephrin proteins, and then was tested to assess how A20 may disrupt the interactions. Since the human and rodent proteins are highly conserved, and essentially identical, with EphB2 sharing 99.5% identity between human and mouse, with only 5 of ~1,000 amino acids different, any species-specific differences were not anticipated. Therefore, commercially available human EphrinB1-Fc (EB1), EphrinB2-Fc (EB2), and EphrinB3-Fc (EB3) ectodomain proteins were sparsely immobilized onto biosensors and then exposed to 50 nM of soluble human EphB1-His, EphB2-His, and EphB4-His ectodomains for 800 sec association and 1,000 sec dissociation steps with a total of nine different interactions analyzed. In the absence of A20 chemical, the immobilized human EphrinB proteins bound to their appropriate human EphB target proteins; with EphrinB1 only bound EphB1 and EphB2, EphrinB2 bound all three EphB1, EphB2, and EphB4, and EphrinB3 only bound EphB1 and EphB2 (FIG. 19A-19B).
Addition of compound also altered dissociation kinetics. […] This is referred to as the “unsurmountable” component of the Eph-Ephrin interaction (FIG. 21C). Additionally, AUC data was graphed for these runs (FIG. 21D). […]

Chain of EphrinB1-EphB2 (P29323 19-543 limits assumed): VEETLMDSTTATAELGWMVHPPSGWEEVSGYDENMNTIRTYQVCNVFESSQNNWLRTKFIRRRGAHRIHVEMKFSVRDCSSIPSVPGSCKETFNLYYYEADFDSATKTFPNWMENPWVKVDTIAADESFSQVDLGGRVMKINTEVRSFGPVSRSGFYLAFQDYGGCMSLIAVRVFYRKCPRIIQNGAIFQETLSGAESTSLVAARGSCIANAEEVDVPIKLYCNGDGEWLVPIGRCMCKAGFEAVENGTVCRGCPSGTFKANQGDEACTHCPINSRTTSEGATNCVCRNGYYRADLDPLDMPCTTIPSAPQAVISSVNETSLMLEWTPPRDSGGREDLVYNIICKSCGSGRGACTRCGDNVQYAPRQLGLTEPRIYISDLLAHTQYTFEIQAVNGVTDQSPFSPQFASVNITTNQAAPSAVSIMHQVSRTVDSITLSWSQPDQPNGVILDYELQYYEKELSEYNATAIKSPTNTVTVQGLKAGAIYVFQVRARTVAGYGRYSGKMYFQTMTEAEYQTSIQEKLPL

Oc1c(Br)cc(CN2CCOCC2)c2cccnc12 [Compound 5, 7-bromo-5-(morpholinomethyl)quinolin-8-ol]
inhibition at 1 µM (EB1-EphB2, A20, read-out: reduction of tetramers): ~45% | IC (maximum) (read-out: concentration producing maximum inhibition): 1 µM
